Results: patent publication US9682141B2, “Combination of kinase inhibitors and uses thereof” (INTELLIKINE LLC, priority 2011, dated 2017)
Where two headings read alike, the source gives them in different places.

Assays:
Type in all cases: biochemical
[1] = target: PI3K δ (Homo sapiens (Human), UniProt O00329); assay: PI 3-Kinase (human) HTRF assay, p110δ/p85α
[2] = target: mTORC (Homo sapiens (Human), UniProt P42345); assay: mTOR inhibition assay (radiometric or LanthaScreen TR-FRET)
Description: The compounds described herein can be tested against recombinant mTOR (Invitrogen) in an assay containing 50 mM HEPES, pH 7.5, 1 mM EGTA, 10 mM MgCl2, 2.5 mM, 0.01% Tween, 10 μM ATP (2.5 μCi of μ-32P-ATP), and 3 μg/mL BSA. Rat recombinant PHAS-1/4EBP1 (Calbiochem; 2 mg/mL) is used as a substrate. Reactions are terminated by spotting onto nitrocellulose, which is washed with 1M NaCl/1% phosphoric acid (approximately 6 times, 5-10 minutes each). Sheets are dried and the transferred radioactivity quantitated by phosphorimaging.
For instance, one can use Invitrogen's LanthaScreen™ Kinase assay to test the inhibitors of mTOR disclosed herein. This assay is a time resolved FRET platform that measures the phosphorylation of GFP labeled 4EBP1 by mTOR kinase. The kinase reaction is performed in a white 384 well microtitre plate. The total reaction volume is 20 ul per well and the reaction buffer composition is 50 mM HEPES pH7.5, 0.01% Polysorbate 20, 1 mM EGTA, 10 mM MnCl2, and 2 mM DTT. In the first step, each well receives 2 ul of test compound in 20% dimethylsulphoxide resulting in a 2% DMSO final concentration. Next, 8 ul of mTOR diluted in reaction buffer is added per well for a 60 ng/ml final concentration. To start the reaction, 10 ul of an ATP/GFP-4EBP1 mixture (diluted in reaction buffer) is added per well for a final concentration of 10 μM ATP and 0.5 μM GFP-4EBP1. The plate is sealed and incubated for 1 hour at room temperature. […] The plate is sealed, incubated for 1 hour at room temperature, and then read on a plate reader set up for LanthaScreen™ TR-FRET. Data is analyzed and IC50s are generated using GraphPad Prism 5.

[3] = target: PI3K γ (Homo sapiens (Human), UniProt P48736); assay: PI 3-Kinase (human) HTRF assay, p110γ
Description: An exemplary system is PI 3-Kinase (human) HTRF™ Assay from Upstate. […] Briefly, the assay is a time resolved FRET assay that indirectly measures PIP3 product formed by the activity of a PI3-K. The kinase reaction is performed in a microtitre plate (e.g., a 384 well microtitre plate). The total reaction volume is approximately 20 ul per well. In the first step, each well receives 2 ul of test compound in 20% dimethylsulphoxide resulting in a 2% DMSO final concentration. Next, approximately 14.5 ul of a kinase/PIP2 mixture (diluted in 1× reaction buffer) is added per well for a final concentration of 0.25-0.3 ug/ml kinase and 10 μM PIP2. The plate is sealed and incubated for 15 minutes at room temperature. To start the reaction, 3.5 ul of ATP (diluted in 1× reaction buffer) is added per well for a final concentration of 10 μM ATP. The plate is sealed and incubated for 1 hour at room temperature. The reaction is stopped by adding 5 ul of Stop Solution per well and then 5 ul of Detection Mix is added per well. The plate is sealed, incubated for 1 hour at room temperature, and then read on an appropriate plate reader. Data is analyzed and IC50s are generated using GraphPad Prism 5. For PI3K α, β, δ, and γ, the nM concentration of inhibitor to reach IC50 is provided.

[4] = target: PI3K α (Homo sapiens (Human), UniProt P42336); assay: PI 3-Kinase (human) HTRF assay, p110α/p85α
[5] = PI 3-Kinase (human) HTRF assay, p110δ/p85α; conditions: read-out: PI3K γ IC50
[6] = target: PI3K β (Homo sapiens (Human), UniProt P42338); assay: PI 3-Kinase (human) HTRF assay, p110β/p85α
Chain of PI3K β (P42338 whole entry): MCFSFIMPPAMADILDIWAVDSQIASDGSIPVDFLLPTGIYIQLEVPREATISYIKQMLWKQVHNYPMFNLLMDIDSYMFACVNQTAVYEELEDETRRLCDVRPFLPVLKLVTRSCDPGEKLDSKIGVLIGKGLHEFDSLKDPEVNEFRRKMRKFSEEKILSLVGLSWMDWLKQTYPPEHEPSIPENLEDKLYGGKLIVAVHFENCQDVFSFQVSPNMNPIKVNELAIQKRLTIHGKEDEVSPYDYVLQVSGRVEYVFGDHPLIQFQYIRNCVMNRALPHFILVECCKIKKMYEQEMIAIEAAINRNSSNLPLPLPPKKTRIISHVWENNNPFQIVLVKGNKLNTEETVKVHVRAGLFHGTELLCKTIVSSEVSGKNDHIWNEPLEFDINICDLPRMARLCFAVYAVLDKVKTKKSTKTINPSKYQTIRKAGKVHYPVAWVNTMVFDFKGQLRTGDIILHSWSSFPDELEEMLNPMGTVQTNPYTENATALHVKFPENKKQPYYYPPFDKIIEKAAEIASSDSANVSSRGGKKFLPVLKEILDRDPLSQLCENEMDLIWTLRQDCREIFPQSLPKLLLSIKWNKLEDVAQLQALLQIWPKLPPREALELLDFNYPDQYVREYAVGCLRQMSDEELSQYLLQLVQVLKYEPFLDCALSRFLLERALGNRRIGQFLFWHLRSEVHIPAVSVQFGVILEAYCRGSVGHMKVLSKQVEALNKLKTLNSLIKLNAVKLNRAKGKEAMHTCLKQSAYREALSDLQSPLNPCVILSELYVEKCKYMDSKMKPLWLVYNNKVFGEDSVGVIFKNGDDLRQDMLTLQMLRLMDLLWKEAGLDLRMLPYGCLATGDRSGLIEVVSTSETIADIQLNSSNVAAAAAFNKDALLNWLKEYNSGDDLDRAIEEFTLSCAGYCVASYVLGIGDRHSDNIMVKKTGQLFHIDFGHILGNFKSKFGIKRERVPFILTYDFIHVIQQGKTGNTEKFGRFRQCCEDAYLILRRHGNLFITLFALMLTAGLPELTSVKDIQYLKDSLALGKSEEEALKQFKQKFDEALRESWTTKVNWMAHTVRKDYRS
Chain of PI3K β (P27986 whole entry partner): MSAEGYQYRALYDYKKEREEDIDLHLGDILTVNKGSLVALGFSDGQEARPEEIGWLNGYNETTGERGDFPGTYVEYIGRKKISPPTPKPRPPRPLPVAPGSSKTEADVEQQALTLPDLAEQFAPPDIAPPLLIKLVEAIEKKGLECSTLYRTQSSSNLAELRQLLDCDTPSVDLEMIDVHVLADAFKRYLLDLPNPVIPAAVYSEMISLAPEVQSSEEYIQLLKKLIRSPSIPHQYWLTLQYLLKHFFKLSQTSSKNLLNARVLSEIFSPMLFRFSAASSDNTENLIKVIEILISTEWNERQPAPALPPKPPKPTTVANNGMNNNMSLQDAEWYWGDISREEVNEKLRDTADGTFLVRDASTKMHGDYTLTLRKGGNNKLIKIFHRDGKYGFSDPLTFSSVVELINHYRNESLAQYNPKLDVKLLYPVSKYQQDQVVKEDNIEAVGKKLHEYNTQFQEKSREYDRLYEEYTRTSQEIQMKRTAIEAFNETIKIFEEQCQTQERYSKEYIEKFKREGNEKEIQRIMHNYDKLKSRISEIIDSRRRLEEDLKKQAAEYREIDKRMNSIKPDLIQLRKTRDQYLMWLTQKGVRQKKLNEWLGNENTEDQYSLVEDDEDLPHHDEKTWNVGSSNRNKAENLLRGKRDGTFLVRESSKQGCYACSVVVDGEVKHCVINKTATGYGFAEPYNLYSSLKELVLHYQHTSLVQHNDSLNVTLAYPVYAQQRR

Chain of PI3K α (P42336 whole entry): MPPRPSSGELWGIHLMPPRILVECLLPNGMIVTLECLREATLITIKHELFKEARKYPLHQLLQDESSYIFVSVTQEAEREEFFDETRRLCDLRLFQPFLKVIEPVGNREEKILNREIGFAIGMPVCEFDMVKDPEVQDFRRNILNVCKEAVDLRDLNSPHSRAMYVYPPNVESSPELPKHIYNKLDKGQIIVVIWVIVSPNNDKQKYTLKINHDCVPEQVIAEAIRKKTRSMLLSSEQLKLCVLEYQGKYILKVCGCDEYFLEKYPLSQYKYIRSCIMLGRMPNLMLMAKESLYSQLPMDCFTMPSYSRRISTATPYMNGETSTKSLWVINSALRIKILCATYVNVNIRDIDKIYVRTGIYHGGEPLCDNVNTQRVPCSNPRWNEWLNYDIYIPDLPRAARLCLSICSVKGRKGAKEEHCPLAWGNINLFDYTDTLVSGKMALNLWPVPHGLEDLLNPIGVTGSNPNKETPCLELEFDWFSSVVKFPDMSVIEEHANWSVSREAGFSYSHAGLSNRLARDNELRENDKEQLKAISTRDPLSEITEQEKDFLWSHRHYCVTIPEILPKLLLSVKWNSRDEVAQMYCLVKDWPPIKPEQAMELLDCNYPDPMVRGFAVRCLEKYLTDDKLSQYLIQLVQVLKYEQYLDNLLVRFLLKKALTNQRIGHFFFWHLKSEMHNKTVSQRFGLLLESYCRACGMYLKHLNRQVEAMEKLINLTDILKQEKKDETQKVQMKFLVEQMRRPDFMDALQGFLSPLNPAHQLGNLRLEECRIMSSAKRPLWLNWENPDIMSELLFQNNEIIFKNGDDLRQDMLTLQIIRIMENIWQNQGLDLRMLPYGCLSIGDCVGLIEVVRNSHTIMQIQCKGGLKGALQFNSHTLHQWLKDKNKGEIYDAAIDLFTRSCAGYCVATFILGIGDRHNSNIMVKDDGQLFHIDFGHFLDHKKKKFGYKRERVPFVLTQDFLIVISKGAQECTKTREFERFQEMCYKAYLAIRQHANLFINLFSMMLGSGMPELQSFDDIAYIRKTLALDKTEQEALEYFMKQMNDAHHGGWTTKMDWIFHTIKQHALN
Chain of PI3K α (P27986 whole entry partner): as the sequence (P27986 whole entry partner) above
Chain of PI3K δ (O00329 whole entry): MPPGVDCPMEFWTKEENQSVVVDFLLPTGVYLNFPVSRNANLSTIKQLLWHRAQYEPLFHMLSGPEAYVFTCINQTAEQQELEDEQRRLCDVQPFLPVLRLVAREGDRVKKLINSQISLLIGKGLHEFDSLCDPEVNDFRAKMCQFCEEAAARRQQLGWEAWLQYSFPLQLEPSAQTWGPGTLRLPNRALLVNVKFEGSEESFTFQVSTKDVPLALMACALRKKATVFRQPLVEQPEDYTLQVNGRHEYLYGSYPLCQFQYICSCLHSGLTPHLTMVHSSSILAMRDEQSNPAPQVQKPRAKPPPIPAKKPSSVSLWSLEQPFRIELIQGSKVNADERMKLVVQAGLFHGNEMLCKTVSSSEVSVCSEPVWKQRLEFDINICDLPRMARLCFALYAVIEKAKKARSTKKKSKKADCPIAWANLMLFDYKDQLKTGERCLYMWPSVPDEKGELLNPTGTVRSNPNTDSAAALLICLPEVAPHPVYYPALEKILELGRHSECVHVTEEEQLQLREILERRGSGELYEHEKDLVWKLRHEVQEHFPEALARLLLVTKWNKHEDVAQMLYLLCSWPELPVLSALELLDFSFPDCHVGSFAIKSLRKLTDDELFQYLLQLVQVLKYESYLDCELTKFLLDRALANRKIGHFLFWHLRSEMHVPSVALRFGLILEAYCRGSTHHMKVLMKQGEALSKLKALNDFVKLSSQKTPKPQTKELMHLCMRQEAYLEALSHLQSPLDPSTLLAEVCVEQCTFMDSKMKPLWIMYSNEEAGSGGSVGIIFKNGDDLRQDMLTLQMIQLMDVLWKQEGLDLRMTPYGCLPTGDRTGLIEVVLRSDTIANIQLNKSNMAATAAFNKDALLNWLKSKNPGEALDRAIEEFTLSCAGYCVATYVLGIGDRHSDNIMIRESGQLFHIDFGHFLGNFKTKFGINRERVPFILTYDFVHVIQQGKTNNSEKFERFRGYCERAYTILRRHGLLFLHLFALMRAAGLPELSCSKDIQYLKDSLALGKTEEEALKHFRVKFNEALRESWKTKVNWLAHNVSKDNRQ
Chain of PI3K δ (P27986 whole entry partner): as the sequence (P27986 whole entry partner) above

SMILES	IC50 [1] [nM]	IC50 [2] [nM]	IC50 ([3]; read-out: PI3K γ IC50) [nM]	IC50 [4] [nM]	IC50 [5] [nM]	IC50 ([3]; read-out: PI3K δ IC50) [nM]	IC50 [6] [nM]
Nc1nc2cc(-c3ccc4ncn(C5CCOCC5)c(=O)c4c3)ccc2o1	> 10000	> 10000	> 10000	< 1000			
Nc1nc2cc(-c3ccc4ncc(N5CC[C@H](O)C5)nc4c3)ccc2o1		< 10000		< 100	> 10000	< 1000	< 1000
C[C@@H]1CN(C(=O)C2CN(c3cnc4ccc(-c5ccc6oc(N)nc6c5)cc4n3)C2)CCN1		< 10000		< 100	< 1000	< 1000	< 10000
CC(C)[C@@H](N)C(=O)N1CCN(c2cnc3ccc(-c4ccc5oc(N)nc5c4)cc3n2)CC1		< 10000		< 100	< 1000	< 1000	< 1000
Nc1nc2cc(-c3ccc4ncc(N5CC(N6CCOCC6)C5)nc4c3)ccc2o1		< 1000		< 100	> 10000	< 10000	> 10000
CN1CCN(C2CN(c3cnc4ccc(-c5ccc6oc(N)nc6c5)cc4n3)C2)CC1		< 10000		< 100	< 10000	< 10000	< 10000
Nc1nc2cc(-c3ccc4ncc(N5CC(C(=O)N6CCN(C7CC7)CC6)C5)nc4c3)ccc2o1		< 10000		< 100	< 1000	< 1000	< 10000
CN1CCN(c2cnc3ccc(-c4ccc5oc(N)nc5c4)cc3n2)CC1=O		< 10000		< 100	< 10000	< 1000	< 1000
Nc1nc2cc(-c3ccc4ncc(N5CCN(C(=O)[C@@H](N)CO)CC5)nc4c3)ccc2o1		< 10000		< 100	< 10000	< 10000	< 1000
CN1CCN(C2CN(C(=O)c3cnc4ccc(-c5ccc6oc(N)nc6c5)cn34)C2)CC1		< 10000		< 100	< 10000	> 10000	> 10000
Nc1nc2cc(-c3ccc4ncc(N5CC(N6CCN(C7CC7)CC6)C5)nc4c3)ccc2o1		< 10000		< 100	< 10000	< 10000	< 10000
Nc1nc2cc(-c3ccc4ncc(N5CC(N6CC[C@@H](O)C6)C5)nc4c3)ccc2o1		< 1000		< 100	< 10000	< 10000	< 10000
Nc1nc2cc(-c3ccc4ncc(N5CC(n6cccn6)C5)nc4c3)ccc2o1		< 1000		< 100	> 10000	< 10000	< 10000
Cc1ccn(C2CN(c3cnc4ccc(-c5ccc6oc(N)nc6c5)cc4n3)C2)n1		> 10000		< 100	< 10000	< 10000	< 10000
Nc1nc2cc(-c3ccc4ncc(N5CC(N6CC[C@H](O)C6)C5)nc4c3)ccc2o1		> 10000		< 100	< 10000	< 1000	< 1000
CN1CCN(C2CN(c3cnc4ccc(-c5ccc6oc(N)nc6c5)cc4n3)C2)CC1=O		> 10000		< 100	< 10000	< 1000	< 10000
CCN(CC)C1CN(c2cnc3ccc(-c4ccc5oc(N)nc5c4)cc3n2)C1		> 10000		< 100	< 10000	< 1000	< 10000
Nc1nc2cc(-c3ccc4ncc(N5CC(N6CCNCC6)C5)nc4c3)ccc2o1		> 10000		< 100	< 1000	< 1000	< 1000
CC(=O)N1CCN(C2CN(c3cnc4ccc(-c5ccc6oc(N)nc6c5)cc4n3)C2)CC1		> 10000		< 100	< 1000	< 1000	< 10000
CS(=O)(=O)N1CCN(C2CN(c3cnc4ccc(-c5ccc6oc(N)nc6c5)cc4n3)C2)CC1		> 10000		< 100	< 10000	< 10000	< 10000
CCN1CCN(C2CN(c3cnc4ccc(-c5ccc6oc(N)nc6c5)cc4n3)C2)CC1		> 10000		< 100	< 1000	< 10000	< 1000
COC(=O)N1CCC(n2ncc3c(N4CCOCC4)nc(-c4ccc5oc(N)nc5c4)nc32)CC1		< 1000		< 1000	> 10000	> 10000	< 10000
CC(C)N1CCN(C2CN(c3cnc4ccc(-c5ccc6oc(N)nc6c5)cc4n3)C2)CC1		> 10000		< 100	< 10000	< 10000	< 10000
Nc1nc2cc(-c3ccc4ncc(N5CC(N6CCN(CCO)CC6)C5)nc4c3)ccc2o1		> 10000		< 100	< 1000	< 10000	< 10000

SMILES	IC50 [1] [nM]	IC50 [2] [nM]	IC50 ([3]; read-out: PI3K γ IC50) [nM]	IC50 [4] [nM]	IC50 [5] [nM]	IC50 ([3]; read-out: PI3K δ IC50) [nM]	IC50 [6] [nM]
Nc1nc2cc(-c3ccc4ncc(N5CC(N6CCN(CC7CC7)CC6)C5)nc4c3)ccc2o1		> 10000		< 100	< 10000	> 10000	< 10000
Nc1nc2cc(-c3ccc4ncc(N5CCC(n6ccnc6)CC5)nc4c3)ccc2o1		< 10000		< 100	< 1000	< 1000	< 1000
Nc1nc2cc(-c3nc(N4CCOCC4)c4cnn(C5CCNCC5)c4n3)ccc2o1		< 1000		< 1000	< 10000	< 1000	< 100
C[C@H]1CN(C2CN(c3cnc4ccc(-c5ccc6oc(N)nc6c5)cc4n3)C2)CCN1		> 10000		< 100	< 10000	> 10000	< 10000
Cc1cc2oc(N)nc2cc1-c1ccc2ncc(N3CC(N4CCOCC4)C3)nc2c1		> 10000		< 10000	> 10000	> 10000	> 10000
Cc1nccn1C1CN(c2cnc3ccc(-c4ccc5oc(N)nc5c4)cc3n2)C1		< 10000		< 100	< 10000	< 10000	< 10000
Nc1nc2cc(-c3ccc4ncc(N5CC(N6CCOCC6)C5)nc4c3)c(F)cc2o1		> 10000		< 100	< 10000	< 10000	< 10000
CS(=O)(=O)N1CCN(C2CCN(c3cnc4ccc(-c5ccc6oc(N)nc6c5)cc4n3)CC2)CC1		< 10000		< 100	< 10000	< 1000	< 10000
CN(C)[C@@H]1CCN(c2cnc3ccc(-c4ccc5oc(N)nc5c4)cc3n2)C1		< 1000		< 100	< 10000	< 10000	< 100
CN1CCN([C@@H]2CCN(c3cnc4ccc(-c5ccc6oc(N)nc6c5)cc4n3)C2)CC1		< 10000		< 100	< 10000	> 10000	< 1000
Nc1nc2cc(-c3ccc4ncc(N5CCNC(C(F)(F)F)C5)nc4c3)ccc2o1 (centres unmarked)		< 1000		< 100	< 10000	< 1000	< 1000
CC1(C)CN(C2CN(c3cnc4ccc(-c5ccc6oc(N)nc6c5)cc4n3)C2)CCN1		< 100		< 100	< 1000	< 1000	< 1000
COc1ncc(-c2ccc3ncc(C(=O)N4CCOCC4)n3c2)cc1NS(=O)(=O)c1ccc(F)cc1F		< 1000		< 100	< 100	< 100	< 100
CS(=O)(=O)Nc1cc(-c2ccc3ncc(C(=O)N4CCOCC4)n3c2)cnc1Cl		< 100		< 100	< 100	< 100	< 100
O=C(c1cnc2ccc(-c3cnc(Cl)c(NS(=O)(=O)c4ccc(F)cc4F)c3)cn12)N1CCOCC1		< 1000		< 100	< 100	< 100	< 100
Cn1cc(-c2ccnc3ccc(-c4ccc5oc(N)nc5c4)cc23)cn1 [Compound 26]	< 100	< 1000	< 100	< 100			
CN1CCC(Nc2ncnc3ccc(-c4ccc5oc(N)nc5c4)cc23)CC1 [Compound 35]	< 100	< 10000	< 100	< 100			
CN1CCC(n2cnc3ccc(-c4ccc5oc(N)nc5c4)cc3c2=O)CC1 [Compound 36]	< 10000	< 10000	> 10000	< 100			
Nc1nc2cc(-c3ccc4nccn4c3)ccc2o1 [Compound 40]	> 10000	< 10000	< 10000	< 10000			
Cn1cc(-c2cnc3ccc(-c4ccc5oc(N)nc5c4)cn23)cn1 [Compound 41]	< 1000	< 10000	< 1000	< 100			
CN1CCN(c2ccc(-c3cnc4ccc(-c5ccc6oc(N)nc6c5)cn34)cn2)CC1 [Compound 42]	< 1000	> 10000	< 1000	< 100			
CN1CCN(C(=O)c2cnc3ccc(-c4ccc5oc(N)nc5c4)cn23)CC1 [Compound 44]	< 10000	< 10000	< 10000	< 100			
N#Cc1cnc2ccc(-c3ccc4oc(N)nc4c3)cc2c1-c1ccncc1 [Compound 46]	< 100	< 100	< 100	< 100			
Nc1nc2cc(-c3ccc4ncc(OC5CCOCC5)nc4c3)ccc2o1 [Compound 49]	< 10000	< 10000	< 1000	< 100			
